Molecules are shown by their SMILES. Structures can show the parent of a compound that is named as a salt.

Assay [1] deals with murine disease models of atherosclerosis. The settings on record: mouse, in vivo; cited from earlier work.
Assay [2] has as its system mouse macrophages (bone marrow derived, ABCA1 fl/fl WT) treated with 5% CSE. Description: Mouse macrophages treated with 5% CSE with or without LXR agonist (RT-PCR, Western blot, zymography). The assay is classed as cell-based. The conditions noted are these: bone marrow derived macrophages, 5% CSE, LXR agonist 10 μM. As for the experimental part:
To prepare cigarette (CSE), the smoke from one cigarette (1.1 mg of nicotine, 15 mg of tar) was passed through 25 mls of phosphate buffered saline (PBS) (Mercer et al., 2004). The pH of the extracted solution was adjusted to 7.4 and then filtered (Mercer et al., 2004). CSE was added to the media at concentrations up to 5% (vol/vol) (Mercer et al., 2004).
In these experiments both mouse peritoneal and mouse bone marrow derived macrophages (BMdM) were utilized. Mouse peritoneal macrophages were isolated from peritoneal cavities of 3% thioglycolate injected mice on the 5th day from injection. To compare expression of genes in vitro and in vivo peritoneal macrophages were isolated from mice exposed to room air and cigarette smoke. For in vitro analysis cells were seeded on culture plates for 24 h and then treated with CSE. For in vivo analysis cells were collected from peritoneal cavity and mRNA was directly isolated. Mouse BMdMs were obtained from the following mice: ABCA1 fl/fl in a C57/BL6 background. Briefly, mice were first sacrificed by CO2 asphyxiation followed by cervical dislocation. After sacrificing the mouse the legs were amputated and the excess muscle tissue was removed so as to completely expose the femur and tibia, which were cleaned carefully. These samples were left in sterile PBS for the duration of the procedure. The cavity bones were then flushed with 10 ml of PBS using 26G needle. The obtained cells were then counted (usually 100-150 million cells per mouse) and centrifuged for 5 min at 2600 rpm. Hematopoietic cells can be separated by plastic adhesion; therefore the cells were incubated in petri dishes containing DMEM culture media and supplemented with 10% FBS and 1% antibiotics). Non-adherent progenitor cells were then collected after 2 hours of incubation in culture media and then seeded at a concentration of 4 million cells/ml in fresh culture media, supplemented with L-cell conditioned media containing macrophage colony stimulating factor (M-CSF) at a concentration of 20%. Approximately after 7-10 days of plating the cells become fully differentiated into macrophages and were ready for subsequent experiments. After treatment the culture supernatants, proteins, and total RNA were collected for analysis. […]
Total RNA was extracted from specimens of lung tissue 0.3 cm^3 in size with the use of the RNeasy kit (Qiagen, Germantown, Md.) (Goldklang et al., 2012). The RNA was then further processed to obtain cDNA, which was used for Real Time (RT) PCR analysis. TaqMan gene expression assays (Applied Biosystems, Carlsbad, Calif.) were performed to assess gene-transcript levels with the use of an ABI Prism 7900HT Sequence Detection System (Applera, Foster City, Calif.) (Goldklang et al., 2012). The following primers were used to check the respective gene expression: ABCA1 (Hs01059118_m1), ABCG1 (Hs00245154_m1), MMP-9 (Mm00442991_m1), IL-1β (Mm00434227_g1), TNF-α (Mm00443260_g1) and GAPDH (4352932E) from TaqMan Gene Expression Assays, Applied Biosystems, CA. β-actin was used as a control since it is a housekeeping gene.
The lungs of mice (-10 mg) were homogenized in 1 ml of Radioimmunoprecipitation assay (RIPA) buffer, and centrifuged at 14,000 g for 10 min. The protein concentration of each sample was measured using a Bradford reagent. The required amount of each sample was then used for western blot analysis, so that the concentration was equal for all samples. Proteins were first separated on the basis of molecular weight via sodium dodecyl sulphate polyacrylamide gel electrophoresis (SDS-PAGE). The same gel was then transferred onto a nitro cellulose membrane with the help of electric current (or electroblotting) that transfers the protein from polyacrylamide gel to the membrane. This membrane was then incubated in the solution containing primary antibodies, specific for the proteins of interest, ABCA1 and ABCG1, followed by the use of a secondary antibody that allowed the detection of protein by chemiluminescent. […]
On the technique in general: A western blot detects proteins with antibodies after separation by electrophoresis.

The subject of another assay is alveolar macrophages. The settings on record: in vitro; cited from earlier work.

`CON(C)C(=O)CC[C@@H](C)[C@H]1CC[C@H]2[C@@H]3C[C@H](O)[C@@H]4C[C@H](O)CC[C@]4(C)[C@H]3CC[C@]12C` [hypocholamide]: in assay [1], the “cholesterol level in serum and liver” value was “lowers”; the development of atherosclerosis entry is on record as “inhibits”.
As for `O=C(O)Cc1cccc(OCCCN(Cc2cccc(C(F)(F)F)c2Cl)CC(c2ccccc2)c2ccccc2)c1` [GW3965, 3-[3-[N-(2-Chloro-3-trifluoromethylbenzyl)-(2,2-diphenylethyl)amino]propyloxy]phenylacetic acid hydrochloride], in assay [1], the “cholesterol level in serum and liver” value is “lowers”; the development of atherosclerosis entry is listed as “inhibits”. For the same molecule, the “MMP9 expression (mRNA) after smoke exposure” value in assay [2] is “able to block”. Further, in the assay on alveolar macrophages, the “CXC10, CCL5, and IL-10 production” value is listed as “anti-inflammatory effects”; the “production of TNFα, IL-1β, or CXCL8” value is “did not significantly suppress”.

These data come from US20160310454A1, “LIVER X RECEPTOR AGONISTS IN THE TREATMENT OF EMPHYSEMA” (priority 2013, published 2016).
